Legend:
[1] = tested on: S2 subunit of Omicron variants; assay type: binding, SARS‐CoV‐2 Omicron variants
[2] = tested on: S2 subunit of BA.2, BA.2.75, BA.4, BA.5, BQ.1, XBB, XBB.1.5, XBB.1.16, CH.1.1, XBB.1.9, XBB.2.3 and EG.5.1; assay type: binding, SARS‐CoV‐2 Omicron variants

Which “S2 subunit bound to plasma membrane with facilitation by LL‐37” value [1] does the source give for “LLGDFFRKSKEKIGKEFKRIVQRIKDFLRNLVPRTES [LL‐37]” here?
Its value is “S2 subunit of SARS‐CoV‐2 rather than Omicron variants obviously bound”.

And the “binding of S2 subunit to immobilised LL‐37” value [2]?
Its value is “much lower binding”.

Source: PMC12686126, “LL‐37 Inhibits TMPRSS2‐Mediated S2' Site Cleavage and SARS‐CoV‐2 Infection but Not Omicron Variants” (Cell Proliferation, 2025)
